Where two headings read alike, the source gives them in different places.
What was measured:
[1] = biological target: T1, PKA (Homo sapiens, UniProt P17612); assay: PKA inhibition; type: biochemical; conditions: for difference of IC50 for PKA versus PKG: PKA IC50 relative to PKG IC50
[2] = biological target: T2, PKG (Homo sapiens, UniProt Q13976); assay: PKG inhibition: transfer of gamma-32P from ATP to peptide substrate; type: biochemical
T2 sequence (Q13976 1-671): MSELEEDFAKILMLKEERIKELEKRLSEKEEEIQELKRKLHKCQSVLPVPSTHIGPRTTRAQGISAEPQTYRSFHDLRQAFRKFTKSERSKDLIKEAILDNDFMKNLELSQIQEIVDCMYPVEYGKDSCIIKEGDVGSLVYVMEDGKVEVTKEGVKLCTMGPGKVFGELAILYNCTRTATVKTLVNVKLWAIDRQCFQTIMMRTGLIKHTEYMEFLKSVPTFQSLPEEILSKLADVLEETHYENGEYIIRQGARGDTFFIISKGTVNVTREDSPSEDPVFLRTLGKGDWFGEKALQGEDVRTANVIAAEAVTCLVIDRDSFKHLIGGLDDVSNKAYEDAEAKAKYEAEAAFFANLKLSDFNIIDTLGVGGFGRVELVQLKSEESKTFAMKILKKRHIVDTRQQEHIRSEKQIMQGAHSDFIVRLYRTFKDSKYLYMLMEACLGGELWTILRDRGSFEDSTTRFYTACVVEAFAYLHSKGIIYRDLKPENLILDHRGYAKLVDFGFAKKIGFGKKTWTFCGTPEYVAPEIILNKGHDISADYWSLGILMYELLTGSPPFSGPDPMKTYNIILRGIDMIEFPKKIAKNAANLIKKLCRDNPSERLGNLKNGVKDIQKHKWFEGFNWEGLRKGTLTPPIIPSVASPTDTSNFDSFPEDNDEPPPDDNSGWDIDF

[3] = system: PKC isoforms; conditions: Series B, Table 2; read-out: IC50 PKC isoforms from literature; cited from earlier work
[4] = biological target: T1, PKA; conditions: cited from earlier work
[5] = system: rats; assay: Behavioural and motor observation of treated rats; type: in vivo; conditions: rat; eating, sleeping, defecating, micturation, balance, exploring, socialization
Description: Modification of compound 6 to increase affinity and selectivity, and perhaps plasma half-life, as described above, will be important. […] For example, the animals had difficulty in changing from the supine to prone positions. […] The effects lasted for at least 24 hours and disappeared after 3 days.

[6] = system: CFA-induced thermal hyperalgesia in the hindpaws of rats; assay: CFA-induced thermal hyperalgesia, hindpaw withdrawal latency; type: in vivo; conditions: rat; for Effectiveness: 24 hours after CFA injection
Description: Both compounds were further tested for their efficacy in reducing complete Freund's adjuvant (CFA)-induced thermal hyperalgesia in the hindpaws of rats. The hindpaws of rats were first tested for their response to a thermal probe as a baseline reference. Then the right hindpaw was injected with CFA (100 μl). The injected site developed edema and redness, indicating an inflammatory reaction, within 12 hours. […] The rats were then given either compound 6 or 46 at different times after CFA injection via different routes as shown in the tables below. Each hindpaw was then tested for its response to a thermal stimulus on successive days.

[7] = system: rats; conditions: intrathecal, after induction of an inflammatory response, 10 and 60 minutes later; cited from earlier work
[8] = Table 4, read-out: PKA inhibition (IC50)
[9] = Activity: IC50 vrs PKG, Series B, 30 μM ATP

In the case of `CCCOc1ccc(OC)c(F)c1C(=O)c1ccc(C(=O)OC2CNCC2NC(=O)c2ccc(O)cc2)cc1` (stereo not shown) [Compound B-21], the IC50 [1, 8] is reported as > 10000 nM and the IC50 ([2]; PKG inhibition (IC50), Table 4) is reported as 200 nM.

For `O=C(NC1CNCC1OC(=O)c1cc(O)c(C(=O)c2c(O)cccc2C(=O)O)c(O)c1)c1ccc(O)cc1` (stereo not shown) [Compound B-2, reference compound], the IC50 [3] is listed as 4 to 33 nM, the IC50 ([4]; read-out: IC50 PKA from literature, Series B, Table 2) is listed as 70 nM and the IC50 ([4]; read-out: PKA activity (IC50), Table 1, from Lai et al. 1997) is listed as 4 to 33 nM. The IC50 ([4]; read-out: PKA inhibition (IC50), Table 3, same values given as from literature in Table 2) was 70 nM, the “difference of IC50 for PKA versus PKG” value [1] was 3 fold and the “reduction of PKG inhibition relative to balanol” value [2] was 5 fold. The IC50 [2, 9] was 7 nM, the IC50 ([2]; PKG activity (IC50), Table 1) was 7 nM and the IC50 ([2]; PKG inhibition (IC50), Table 3) was 7 nM.

For `O=C(Nc1ccccc1)Nc1ccc(C(=O)O[C@@H]2CCC[C@H]2NC(=O)c2ccc(O)cc2)cc1` (relative stereo) [Series A 11], the “Activity (ability to inhibit PKG)” value ([2]; Series A, compounds at 10 μM, 30 μM ATP) was “no inhibition”.

In the case of `O=C(NC1CCCC1OC(=O)c1cc(O)c(C(=O)c2c(O)cccc2C(=O)O)c(O)c1)c1ccc(O)cc1` (stereo not shown) [Compound B-1, reference compound], the “difference of IC50 for PKA versus PKG” value [1] is reported as 3 fold, the IC50 [2, 9] is reported as 7 to 8 nM and the IC50 ([2]; PKG activity (IC50), Table 1) is reported as 7 to 8 nM. For the same molecule, the IC50 ([2]; PKG inhibition (IC50), Table 3) was 7 nM.

With `O=C(OCc1ccccc1Cl)c1ccc(-c2ccc(O)cc2)cc1` [Compound 8J] the “inhibition of PKG activity” value ([2]; 10 μM compound, average of two independent experiments) was “weaker inhibition” and the “inhibitory activity on PKG (in words)” value ([2]; 1 and 10 micromolar compound (FIGS. 10A-B)) was “significant inhibitory activity”.

For `COCOc1ccc(OC)c(F)c1C(=O)c1ccc(C(=O)OC2CNCC2NC(=O)c2ccc(O)cc2)cc1` (stereo not shown) [Compound B-6], the adverse behavioral effects [5] was “did not exhibit any adverse behavioral effects”, the “Effectiveness (recovery)” value ([6]; 3.3 nmol, subcutaneous pump, 60 hours after CFA injection, 5 days later) was >90% and the “Effectiveness (recovery)” value ([6]; 0.25 μM final CSF conc., intrathecal pump, 72 hours after CFA injection, 10 days) was >50%. For the same molecule, the Effectiveness ([6]; 25 μM final CSF conc., intrathecal pump, 6 days later) was >90% 6 days, the Effectiveness ([6]; 82.5 μM final CSF conc., intrathecal single injection) was “No effect” and the “analgesic effects (in words)” value ([6]; doses and routes tested, preliminary results) was “analgesic effects comparable to that achieved with the most potent commercially available inhibitor of PKG”. For the same molecule, the “effect on thermal hyperalgesia” value ([6]; single dose injection) was “failed to reduce thermal hyperalgesia”, the IC50 ([1]; Example 12, read-out: IC50 with PKA) was 950 nM and the “difference of IC50 for PKA versus PKG” value [1] was “about 20 fold”. It also gave an IC50 [1, 8] of 950 nM, an IC50 [2, 9] of 40 nM and an IC50 ([2]; IC50 with PKG, Example 12) of 40 nM. It also gave an IC50 ([2]; PKG activity (IC50), Table 1) of 40 nM and an IC50 ([2]; PKG inhibition (IC50), Table 4) of 40 nM.

With `O=C(N[C@@H]1CNC[C@H]1NC(=O)c1ccc(O)cc1)c1ccc(O)cc1` [Compound B-48] the “PKG inhibitory activity (in words)” value [2] was “moderate PKG inhibitory activity” and the IC50 ([2]; Table 6, read-out: PKG inhibition (IC50)) was ~200 nM.

For `COc1ccc(O)c(C(=O)c2ccc(C(=O)OC3CNCC3NC(=O)c3ccc(O)cc3)cc2)c1F` (stereo not shown) [Compound B-7], the “difference of IC50 for PKA versus PKG” value [1] was “approximately the same IC50”, the IC50 ([1]; Series B, Table 2, read-out: Activity: IC50 vrs PKA) was 38 nM and the IC50 ([1]; Table 1, read-out: PKA activity (IC50)) was 38 nM. For the same molecule, the IC50 [1, 8] was 40 nM, the IC50 [2, 9] was 40 nM and the IC50 ([2]; PKG activity (IC50), Table 1) was 40 nM. For the same molecule, the IC50 ([2]; PKG inhibition (IC50), Table 4) was 40 nM.

`O=C(NC1CNCCCC1OC(=O)c1cc(O)c(C(=O)c2c(O)cccc2C(=O)O)c(O)c1)c1ccc(O)cc1` (stereo not shown) [balanol, reference compound] showed an IC50 ([2]; Table 3, read-out: PKG inhibition (IC50)) of 1.6 nM.

With `O=C(N[C@@H]1CNC[C@H]1NC(=O)c1ccc2[nH]ncc2c1)c1ccc(O)cc1` [Compound B-50] the “selectivity over PKA (in words)” value ([1]; PKG versus PKA) was “no selectivity over PKA”, the IC50 ([1]; Table 6, read-out: PKA inhibition (IC50)) was 70 nM and the IC50 ([2]; IC50 (PKG), text b321) was 70 nM.

In the case of `CCN(CC)CC.Nc1nc2c(nc(Sc3ccc(Cl)cc3)n2[C@@H]2O[C@@H]3COP(O)(=S)O[C@H]3[C@H]2O)c(=O)[nH]1` (stereo partly shown) [Rp-8-[4-chlorophenyl)thio]-cGMPS triethylamine], the “effect on acute pain” value [7] is listed as “significant attenuation of acute pain”.

From patent US9402826B2, “Neuronal pain pathway modulators” (The Trustees of Columbia University in the City of New York, priority 2006, dated 2016)
